Assay results from PMC5915154, “Aloe-emodin as drug candidate for cancer therapy” (Oncotarget, 2018).

Key:
drug-resistant sublines = experiment: Resazurin reduction assay, range over drug-resistant and/or transfected sublines; format: cell-based; settings: Homo sapiens
From the text: (§1) The cell lines used in the present work, their origins and maintenance conditions were previously reported. In brief, drug-sensitive CCRF-CEM and multidrug resistant P-glycoprotein-over-expressing CEM/ADR5000 leukemia cells, MDA-MB-231-pcDNA3 breast cancer cells and their transfectant subline MDA-MB-231-BCRP clone 23, HCT116 (p53^+/+) colon cancer cells and its knockout clone HCT116 (p53^-/-), U87.MG glioblastoma multiform cells and their transfectant subline U87.MGΔEGFR as well as HEK293 human embryonic kidney cells transfected with or without a cDNA for ABCB5 were used. The human peripheral mononuclear cells (PMNC) were isolated from fresh blood samples of a healthy donor by using Histopaque® (Sigma-Aldrich, Taufkirchen, Germany).
(§2) Resazurin reduction assay was conducted to test the cytotoxicity of the compounds. This assay is based on the reduction of resazurin to resorufin by viable cells. […] Briefly, aliquots of 0.5×10^4 adherent cells which were allowed to attach overnight and 1×10^4 suspension cells per well were seeded in 96-well-plates with or without the addition of varying concentrations of the test substance to get a total volume of 200 μL/well. After 72 h incubation and addition of resazurin (Sigma-Aldrich) for 4 h, staining was measured by an Infinite M2000 ProTM plate reader (Tecan, Germany) using an excitation wavelength of 544 nm and an emission wavelength of 590 nm. […]

[1] = tested on: mRNA expression (DUSP6, HHEX, MCMDC2, CRCP) in CCRF-CEM cells; experiment: qPCR validation of microarray data; format: cell-based, human; settings: CCRF-CEM treated vs untreated, normalized to GAPDH
Description: Primer sequences of HHEX, MCMDC2 and CRCP were designed using NCBI and GenScript Real Time PCR Primer Design (https://www.genscript.com/ssl-bin/app/primer) websites. DUSP6, HHEX, MCMDC2 and CRCP primers were synthesized by Eurofins MWG Operon (Ebersberg, Germany) and their sequence specificities were checked by NCBI Primer-Blast (http://www.ncbi.nlm.nih.gov/tools/primer-blast). The reaction properties of primers were calculated by Eurofins genomics (https://www.eurofinsgenomics.eu/en/dna-rna-oligonucleotides/oligo-design-more/oligo-property-scan.aspx). The primer sequences were as follows: DUSP6, forward (5′–3′): […], reverse (5′–3′): […] [75]; HHEX, forward: […], reverse: […]; MCMDC2, forward: […], reverse: […]; CRCP, forward: […], reverse: […]. Total RNA was isolated by InviTrap Spin Universal RNA Mini kit (Stratec Molecular) according to the manufacturer’s instruction. One microgram RNA was converted to cDNA using RevertAid H Minus First Strand cDNA Synthesis Kit (Thermo Scientific). The mRNA levels were analyzed by using of 5×Hot Start Tag EvaGreen® qPCR Mix (no ROX) (Axon Labortechnik, Kaiserslautern, Germany) and CFX384™ Real-Time PCR Detection System (Bio-Rad, Munich, Germany). RT-PCR was performed with an initial denaturation at 95°C for 10 second followed by 40 cycles including strand separation at 95°C for 15 s, annealing at 62°C for 30 s and extension at […] for 1 min. The GAPDH, HPRT1 and RLP13 genes were used as housekeeping genes. The expression data were normalized using Bestkeeper software. […] Therefore, GAPDH was used for normalization. Forward and reverse primer sequences of GAPDH were […] for forward and […] for reverse, respectively.
Furthermore, forward and reverse primer sequences of HPRT1 were […] for forward and […] for reverse as well as of RLP13A were TATGCTGCCCCACAAAACC for forward and […] for reverse, respectively. • The quantification method was done as follow: • ΔCt = Ct gene test – Ct endogenous control. • ΔΔCt = ΔCt sample1 – ΔCt calibrator. • RQ = Relative quantification = 2-ΔΔCt.
The RQ is the fold-change compared to the calibrator (untreated sample, time zero, etc.). The calibrator has an RQ value of 1. All samples were compared to the calibrator.

CCRF-CEM cells = experiment: Detection of reactive oxygen species (H2DCFH-DA, flow cytometry); format: cell-based, human
Description: 2′,7′-Dichlorofluorescin diacetate (H2DCFH-DA, Sigma-Aldrich) is a cell-permeable non-fluorescent probe used to detect cellular ROS levels. In the presence of ROS, the compound is de-esterified intracellularly and converts into the highly fluorescent 2′,7′-dichlorofluorescein upon oxidation. Thus, it can be measured by flow cytometry. CCRF-CEM cells were re-suspended in PBS and incubated for 30 min withH2DCFH-DA at a concentration of 2 μM. After washing with PBS, the cells were treated with DMSO as negative control, H2O2 and doxorubicin as positive controls or varying concentrations of Aloe-emodin (0.5-, 1-, 2- and 4-fold IC50) for 1 h. The results were assessed by a BD Accuri™ C6 flow cytometer (Becton Dickinson) using FL-1 the channel (488 nm excitation). For each sample, 10^4 cells were counted. The protocol has been recently reported by us.

[2] = tested on: HCT116 (p53+/+) colon cancer cells; experiment: Resazurin reduction assay, HCT116 (p53+/+); format: cell-based; settings: Homo sapiens, HCT-116, 72 h
From the text: as §1, §2

[3] = tested on: HCT116 (p53-/-) knockout colon cancer cells; experiment: Resazurin reduction assay, HCT116 (p53-/-); format: cell-based, human
From the text: as §1, §2

IC50 [2]: 16.5 µM
IC50 ([3]; Homo sapiens, HCT-116, HCT116(p53-/-), resazurin assay, 72 h): 11.2 µM
Structure (SMILES): O=C1c2cccc(O)c2C(=O)c2c(O)cc(CO)cc21 [Aloe-emodin]
IC50 (drug-resistant sublines): 11.2 to 33.8 µM
qPCR data (FC), CRCP [1]: -2.63 FC
qPCR data (FC), DUSP6 [1]: 1.40 FC
qPCR data (FC), HHEX [1]: 2.23 FC
qPCR data (FC), MCMDC2 [1]: -2.47 FC
ROS production, fold changes (CCRF-CEM cells; 0.5-, 1-, 2- or 4-fold IC50, 1 h, dose-dependent): ≥ 1.5 fold
ROS generation compared with positive controls (CCRF-CEM cells; 1 h, vs doxorubicin (1 μM) or H2O2 (250 μM)): even higher ROS generation than doxorubicin
degree of resistance (collateral sensitivity) ([3]; HCT116 (p53-/-) knockout cells vs HCT116 (p53+/+)): 0.68 fold
